Measurements as given in ChEMBL document CHEMBL1201862, “PubChem BioAssay data set” (2004).
Where “and” joins values, the source holds several entries; their conditions need not be identical. Equal values may be shown once. Calls of active or inactive are those of the source.

Assays:
[1] = Luminescence Cell-Based Dose Confirmation HTS to Identify Activators of 5'UTR Stem-Loop Driven Alpha-Synuclein mRNA Translation in H4 Neuroglioblastoma Cells. [Related pubchem assays: 1829 (Project Summary), 1814 (Primary HTS)]; type: functional
Phospholipase A2 = Phospholipase A2 (Homo sapiens, UniProt P04054); type: functional;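 also: confirmatory dose-response counterscreen on phospholipase A2, testing hits that came from an ultra-high-throughput screen for ATG4B inhibitors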
[2] = Luminescence Cell-Based Dose Response HTS to Identify Activators of Luciferase Translation or Activity in H4 […] Cells. [Related pubchem assays: 1829 (Project Summary), 1814 (Primary HTS)]; type: functional
H4 = assay: Luminescence Cell-Based Dose Response HTS to Identify Activators of 5'UTR Stem-Loop Driven Prion Protein mRNA Translation in H4 Neuroglioblastoma Cells. [Related pubchem assays: 1829 (Project Summary), 1814 (Primary HTS)]; type: functional; settings: Homo sapiens
Cysteine protease ATG4B = Cysteine protease ATG4B (Homo sapiens, UniProt Q9Y4P1); type: functional;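 also: Fluorescence-based dose-response confirmation assay measuring inhibition of ATG4B activity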
[3] = HepG2 cell cytotoxicity, dose response, cytotoxicity control for non-replicating M. tuberculosis project (AID 489018); type: functional; settings: Mycobacterium tuberculosis
[4] = Vero E6 cell cytotoxicity, dose response, cytotoxicity control for non-replicating M. tuberculosis project, secondary assay (AID 492998); type: functional, VeroE6; settings: Vero C1008
[5] = NIH3T3 cell viability loss – ATP luminescence, mouse fibroblasts, counter-screen, dose response (AID 2010); type: functional, cell-based;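 also: cells exposed to compound for about 90 hours before reading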
[6] = target: Delta-type opioid receptor (Homo sapiens, UniProt P41143); assay: Counterscreen for agonists of heterodimerization of the mu 1 (OPRM1) and delta 1 (OPRD1) opioid receptors: Luminescence-based cell-based high throughput dose response assay to identify agonists of OPRD1 homodimerization. [Related pubchem assays (depositor defined):AID504326, AID504355, AID504692, AID504904, AID504905]; type: functional
Mu-type opioid receptor = Mu-type opioid receptor (Homo sapiens, UniProt P35372); assay: Counterscreen for agonists of heterodimerization of the mu 1 (OPRM1) and delta 1 (OPRD1) opioid receptors: Luminescence-based cell-based high throughput dose response assay to identify agonists of OPRM1 homodimerization.; type: functional;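 also: U2OS cells expressing OPRM1 and beta-arrestin as split beta-galactosidase partners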
[7] = THP-1 cell cytotoxicity, dose response, cytotoxicity control for non-replicating M. tuberculosis project (AID 489025); type: functional
[8] = Trypanosoma cruzi growth suppression in host cells – NIH3T3 host cells, beta-gal luminescence, confirmation (AID 2044); type: functional, cell-based;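 also: intracellular parasites grown in NIH/3T3 mouse fibroblasts as host cells; luminescent beta-galactosidase reporter signal from transgenic T. cruzi replicating inside host cells; inhibitors lower the luminescence signal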
[9] = target: Apoptotic protease-activating factor 1 (Homo sapiens, UniProt O14727); type: functional
[10] = target: 5-hydroxytryptamine receptor 5A (Homo sapiens, UniProt P47898); assay: Counterscreen for agonists of OPRM1-OPRD1 heterodimerization: luminescence-based cell-based high throughput dose response assay to identify agonists of 5-hydroxytryptamine (serotonin) 5A receptor (HTR5A). [Related pubchem assays (depositor defined):AID504326, AID504355, AID504692, AID504904, AID504905]; type: functional
cells = type: functional
CHO-K1 = assay: (§1) Counterscreen for antagonists of the orexin 1 receptor (OX1R; HCRTR1): Homogeneous time resolved fluorescence (HTRF)-based cell-based dose response assay to identify antagonists of the parental CHO-K1 cell line. [Related pubchem assays (depositor defined):AID434989, AID435008, AID463079, AID485270, AID492963, AID492964, AID492965, AID493232, AID504699, AID504701]; type: functional; settings: Cricetulus griseus
Orexin receptor type 2 [11] = target: T1, Orexin receptor type 2 (Homo sapiens, UniProt O43614); assay: Counterscreen assay for antagonists of the orexin 1 receptor (OX1R; HCRTR1): Fluorescence-based cell-based dose response assay for antagonists of the orexin 2 receptor (OX2R; HCRTR2), run by assay provider.; type: functional
T1 sequence (O43614 whole entry): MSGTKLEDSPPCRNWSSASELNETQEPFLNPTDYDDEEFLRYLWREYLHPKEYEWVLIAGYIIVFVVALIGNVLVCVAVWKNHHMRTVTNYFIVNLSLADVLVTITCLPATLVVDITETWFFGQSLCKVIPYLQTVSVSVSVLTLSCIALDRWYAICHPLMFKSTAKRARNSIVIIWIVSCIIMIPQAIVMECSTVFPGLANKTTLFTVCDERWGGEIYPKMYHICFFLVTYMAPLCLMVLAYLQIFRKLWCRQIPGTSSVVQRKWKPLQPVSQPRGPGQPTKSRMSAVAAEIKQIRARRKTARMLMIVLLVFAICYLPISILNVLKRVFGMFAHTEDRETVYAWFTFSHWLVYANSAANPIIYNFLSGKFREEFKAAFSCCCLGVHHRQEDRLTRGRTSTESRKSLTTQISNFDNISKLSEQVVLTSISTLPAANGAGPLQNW

[12] = target: T2, Orexin/Hypocretin receptor type 1 (Homo sapiens, UniProt O43613); assay: Homogeneous Time Resolved Fluorescence (HTRF)-based cell-based high throughput dose response assay for antagonists of the orexin 1 receptor (OX1R; HCRTR1). [Related pubchem assays (depositor defined):AID434989, AID435008, AID463079, AID485270, AID492963, AID492964, AID492965, AID493232, AID504717, AID504718]; type: functional
T2 sequence (O43613 whole entry): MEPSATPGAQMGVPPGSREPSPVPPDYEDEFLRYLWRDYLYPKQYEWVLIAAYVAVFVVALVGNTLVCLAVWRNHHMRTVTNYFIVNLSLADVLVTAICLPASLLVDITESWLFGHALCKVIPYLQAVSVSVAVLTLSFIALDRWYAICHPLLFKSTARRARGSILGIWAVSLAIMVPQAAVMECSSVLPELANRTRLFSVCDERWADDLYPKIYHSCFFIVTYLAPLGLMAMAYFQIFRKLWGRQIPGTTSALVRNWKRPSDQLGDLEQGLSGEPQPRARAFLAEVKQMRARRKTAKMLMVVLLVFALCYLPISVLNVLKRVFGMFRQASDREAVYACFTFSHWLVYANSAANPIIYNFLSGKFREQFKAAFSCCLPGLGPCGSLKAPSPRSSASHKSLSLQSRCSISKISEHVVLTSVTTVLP

Orexin receptor type 2 [13] = target: T1, Orexin receptor type 2; assay: Counterscreen assay for antagonists of the orexin 1 receptor (OX1R; HCRTR1): Homogeneous Time Resolved Fluorescence (HTRF)-based cell-based dose response assay for antagonists of the orexin 2 receptor (OX2R; HCRTR2), run by assay provider.; type: functional
[14] = target: T2, Orexin/Hypocretin receptor type 1; assay: Fluorescence-based cell-based high throughput dose response assay for antagonists of the orexin 1 receptor (OX1R; HCRTR1). [Related pubchem assays (depositor defined):AID434989, AID435008, AID463079, AID485270, AID492963, AID492964, AID492965, AID493232, AID504717, AID504718]; type: functional
[15] = as §1, with “Fluorescence-based” for “Homogeneous time resolved fluorescence (HTRF)-based”, “cell-based high throughput” for “cell-based”, “CHO” for “CHO-K1”; type: functional
[16] = target: Beta-2 adrenergic receptor (Homo sapiens, UniProt P07550); assay: ADRB2 activation measured by internalization – cell-based, FAP fluorogen, flow cytometry, cherry pick 1, dose response (AID 588763); type: functional
[17] = target: Peroxisome proliferator-activated receptor gamma/Nuclear receptor coactivator 3 (Homo sapiens, UniProt P37231); assay: TR-FRET dose response biochemical High Throughput Screening assay for agonists of the steroid receptor coactivator 3 (SRC-3) recruitment by the peroxisome proliferator-activated receptor gamma (PPAR gamma): non-selective agonists. [Related pubchem assays: 1301 (Confirmation screen.), 1048 (Primary screen.)]; type: functional
[18] = target: Peroxisome proliferator-activated receptor gamma/Nuclear receptor coactivator 2 (Homo sapiens, UniProt P37231); assay: (§2) TR-FRET dose response biochemical High Throughput Screening assay for agonists of the steroid receptor coactivator 2 (SRC-2) recruitment by the peroxisome proliferator-activated receptor gamma (PPAR gamma): non-selective agonists. [Related pubchem assays: 1297, 1032 ]; type: functional
[19] = target: Peroxisome proliferator-activated receptor gamma/Nuclear receptor coactivator 1 (Homo sapiens, UniProt P37231); assay: as §2, with “1 (SRC-1)” for “2 (SRC-2)”, “assays (depositor defined):AID1300, AID1808, AID504735, AID631]” for “assays: 1297, 1032 ]”; type: protein assay
Peroxisome proliferator-activated receptor gamma/Nuclear receptor coactivator 1, sequence (P37231 whole entry): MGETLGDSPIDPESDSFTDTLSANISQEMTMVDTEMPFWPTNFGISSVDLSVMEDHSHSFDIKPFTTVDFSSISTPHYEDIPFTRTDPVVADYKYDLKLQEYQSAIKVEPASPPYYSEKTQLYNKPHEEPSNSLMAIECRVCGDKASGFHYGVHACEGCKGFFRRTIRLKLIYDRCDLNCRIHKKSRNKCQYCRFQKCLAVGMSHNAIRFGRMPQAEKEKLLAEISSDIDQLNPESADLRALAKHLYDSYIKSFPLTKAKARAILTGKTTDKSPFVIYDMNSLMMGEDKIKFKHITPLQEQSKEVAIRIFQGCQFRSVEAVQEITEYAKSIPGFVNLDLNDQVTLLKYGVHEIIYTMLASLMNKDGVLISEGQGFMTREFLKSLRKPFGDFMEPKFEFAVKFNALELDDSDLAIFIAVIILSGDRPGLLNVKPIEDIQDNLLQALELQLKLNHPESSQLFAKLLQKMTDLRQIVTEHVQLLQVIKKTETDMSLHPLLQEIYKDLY
Peroxisome proliferator-activated receptor gamma/Nuclear receptor coactivator 1, sequence (Q15788 whole entry, further chain): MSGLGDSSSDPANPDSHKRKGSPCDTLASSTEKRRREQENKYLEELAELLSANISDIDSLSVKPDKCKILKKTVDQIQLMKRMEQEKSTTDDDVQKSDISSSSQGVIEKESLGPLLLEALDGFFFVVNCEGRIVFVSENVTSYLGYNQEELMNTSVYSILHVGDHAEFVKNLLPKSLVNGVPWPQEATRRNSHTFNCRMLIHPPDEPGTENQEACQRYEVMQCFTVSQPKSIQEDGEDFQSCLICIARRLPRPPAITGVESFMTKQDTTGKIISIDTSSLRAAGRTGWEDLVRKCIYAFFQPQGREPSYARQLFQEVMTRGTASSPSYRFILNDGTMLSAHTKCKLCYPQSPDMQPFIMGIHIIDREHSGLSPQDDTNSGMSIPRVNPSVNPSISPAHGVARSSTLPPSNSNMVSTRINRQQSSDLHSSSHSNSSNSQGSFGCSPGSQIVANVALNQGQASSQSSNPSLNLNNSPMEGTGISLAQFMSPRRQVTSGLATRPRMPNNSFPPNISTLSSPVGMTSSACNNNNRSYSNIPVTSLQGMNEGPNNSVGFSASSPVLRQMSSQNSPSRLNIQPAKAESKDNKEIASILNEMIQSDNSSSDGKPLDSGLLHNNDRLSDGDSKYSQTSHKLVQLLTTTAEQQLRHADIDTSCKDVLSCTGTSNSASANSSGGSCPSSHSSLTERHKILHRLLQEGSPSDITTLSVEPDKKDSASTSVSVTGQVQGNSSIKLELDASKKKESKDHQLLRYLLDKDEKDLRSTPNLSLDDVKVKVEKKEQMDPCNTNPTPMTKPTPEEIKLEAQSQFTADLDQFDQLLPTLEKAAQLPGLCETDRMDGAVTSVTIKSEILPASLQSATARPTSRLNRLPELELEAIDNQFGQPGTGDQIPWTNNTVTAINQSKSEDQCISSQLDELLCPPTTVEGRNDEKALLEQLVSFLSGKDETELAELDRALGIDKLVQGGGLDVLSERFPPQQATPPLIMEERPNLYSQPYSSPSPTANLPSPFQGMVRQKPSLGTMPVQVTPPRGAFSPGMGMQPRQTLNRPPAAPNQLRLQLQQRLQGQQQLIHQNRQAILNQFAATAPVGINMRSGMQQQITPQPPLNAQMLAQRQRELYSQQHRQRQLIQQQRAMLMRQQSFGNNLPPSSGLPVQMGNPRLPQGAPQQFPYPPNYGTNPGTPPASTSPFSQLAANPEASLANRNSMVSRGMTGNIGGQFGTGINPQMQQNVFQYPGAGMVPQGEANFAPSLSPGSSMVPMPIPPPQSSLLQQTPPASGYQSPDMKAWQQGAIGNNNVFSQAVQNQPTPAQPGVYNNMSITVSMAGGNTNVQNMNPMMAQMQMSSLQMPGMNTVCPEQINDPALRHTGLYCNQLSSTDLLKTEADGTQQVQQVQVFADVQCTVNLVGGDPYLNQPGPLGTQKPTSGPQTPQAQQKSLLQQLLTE

Beta-2 adrenergic receptor, sequence (P07550 whole entry): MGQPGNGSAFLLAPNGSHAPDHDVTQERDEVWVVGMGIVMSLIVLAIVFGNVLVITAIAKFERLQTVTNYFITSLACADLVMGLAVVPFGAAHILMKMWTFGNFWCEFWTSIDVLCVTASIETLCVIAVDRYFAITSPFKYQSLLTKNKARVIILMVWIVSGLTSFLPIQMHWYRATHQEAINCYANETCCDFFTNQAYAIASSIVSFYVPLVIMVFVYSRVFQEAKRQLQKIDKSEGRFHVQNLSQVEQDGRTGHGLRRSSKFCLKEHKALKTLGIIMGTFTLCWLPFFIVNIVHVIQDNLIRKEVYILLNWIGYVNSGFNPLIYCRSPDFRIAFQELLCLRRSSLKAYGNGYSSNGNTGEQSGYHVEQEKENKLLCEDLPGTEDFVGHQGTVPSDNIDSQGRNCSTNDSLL
Apoptotic protease-activating factor 1, sequence (O14727 whole entry): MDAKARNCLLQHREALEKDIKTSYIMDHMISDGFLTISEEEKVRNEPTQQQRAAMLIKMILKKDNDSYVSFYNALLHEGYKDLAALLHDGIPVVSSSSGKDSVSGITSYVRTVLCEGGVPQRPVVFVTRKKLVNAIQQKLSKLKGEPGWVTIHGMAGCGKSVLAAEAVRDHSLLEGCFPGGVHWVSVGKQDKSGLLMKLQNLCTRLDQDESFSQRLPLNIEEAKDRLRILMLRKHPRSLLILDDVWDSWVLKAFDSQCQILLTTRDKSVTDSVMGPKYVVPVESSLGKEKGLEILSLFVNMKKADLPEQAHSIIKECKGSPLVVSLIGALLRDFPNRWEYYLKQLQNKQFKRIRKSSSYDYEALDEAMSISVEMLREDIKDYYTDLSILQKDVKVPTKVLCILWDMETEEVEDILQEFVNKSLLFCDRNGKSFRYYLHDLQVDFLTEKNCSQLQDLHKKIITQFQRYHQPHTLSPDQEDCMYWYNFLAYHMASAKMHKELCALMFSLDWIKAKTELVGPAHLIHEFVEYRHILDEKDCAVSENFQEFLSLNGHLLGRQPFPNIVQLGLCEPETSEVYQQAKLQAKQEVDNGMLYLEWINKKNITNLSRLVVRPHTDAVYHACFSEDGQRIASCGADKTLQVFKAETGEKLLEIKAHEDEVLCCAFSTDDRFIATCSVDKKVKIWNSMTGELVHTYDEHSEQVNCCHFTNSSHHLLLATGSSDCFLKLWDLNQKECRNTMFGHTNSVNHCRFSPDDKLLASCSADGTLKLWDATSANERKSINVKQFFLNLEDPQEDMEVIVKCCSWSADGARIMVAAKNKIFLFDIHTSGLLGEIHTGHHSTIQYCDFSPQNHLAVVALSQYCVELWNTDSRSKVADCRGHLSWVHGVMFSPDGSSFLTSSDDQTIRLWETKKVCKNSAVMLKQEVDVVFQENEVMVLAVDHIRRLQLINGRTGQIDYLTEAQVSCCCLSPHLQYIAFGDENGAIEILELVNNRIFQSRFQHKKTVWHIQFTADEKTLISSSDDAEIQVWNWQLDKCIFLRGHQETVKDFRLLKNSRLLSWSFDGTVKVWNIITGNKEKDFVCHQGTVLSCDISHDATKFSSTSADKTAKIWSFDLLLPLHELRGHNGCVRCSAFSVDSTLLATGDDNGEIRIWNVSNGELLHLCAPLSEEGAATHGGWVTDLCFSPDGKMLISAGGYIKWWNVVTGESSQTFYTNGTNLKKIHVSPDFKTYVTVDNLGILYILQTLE
Mu-type opioid receptor, sequence (P35372 whole entry): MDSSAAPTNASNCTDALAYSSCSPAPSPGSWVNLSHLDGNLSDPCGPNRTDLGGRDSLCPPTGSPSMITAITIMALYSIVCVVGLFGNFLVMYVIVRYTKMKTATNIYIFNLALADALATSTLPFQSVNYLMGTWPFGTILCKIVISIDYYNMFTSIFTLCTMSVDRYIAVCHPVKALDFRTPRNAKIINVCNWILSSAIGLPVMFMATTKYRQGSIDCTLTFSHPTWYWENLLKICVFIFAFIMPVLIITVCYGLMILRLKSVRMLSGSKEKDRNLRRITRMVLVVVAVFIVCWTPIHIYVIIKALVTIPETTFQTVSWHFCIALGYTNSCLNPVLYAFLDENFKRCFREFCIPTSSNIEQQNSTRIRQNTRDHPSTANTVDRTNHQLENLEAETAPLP
Delta-type opioid receptor, sequence (P41143 whole entry): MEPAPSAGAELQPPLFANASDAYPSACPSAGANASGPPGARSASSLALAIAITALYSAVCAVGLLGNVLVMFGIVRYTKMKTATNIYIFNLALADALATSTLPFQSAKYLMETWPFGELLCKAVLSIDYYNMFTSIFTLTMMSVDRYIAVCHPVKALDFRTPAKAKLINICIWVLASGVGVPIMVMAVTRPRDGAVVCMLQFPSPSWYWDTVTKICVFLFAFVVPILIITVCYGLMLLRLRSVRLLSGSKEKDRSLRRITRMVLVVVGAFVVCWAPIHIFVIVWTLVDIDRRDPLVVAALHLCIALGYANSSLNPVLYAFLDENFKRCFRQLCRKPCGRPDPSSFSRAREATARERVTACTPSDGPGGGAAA
Phospholipase A2, sequence (P04054 whole entry): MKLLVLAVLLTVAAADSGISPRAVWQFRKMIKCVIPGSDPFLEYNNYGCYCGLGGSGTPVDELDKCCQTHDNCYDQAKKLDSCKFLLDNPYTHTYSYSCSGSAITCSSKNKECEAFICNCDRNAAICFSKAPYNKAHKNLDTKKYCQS
Cysteine protease ATG4B, sequence (Q9Y4P1 whole entry): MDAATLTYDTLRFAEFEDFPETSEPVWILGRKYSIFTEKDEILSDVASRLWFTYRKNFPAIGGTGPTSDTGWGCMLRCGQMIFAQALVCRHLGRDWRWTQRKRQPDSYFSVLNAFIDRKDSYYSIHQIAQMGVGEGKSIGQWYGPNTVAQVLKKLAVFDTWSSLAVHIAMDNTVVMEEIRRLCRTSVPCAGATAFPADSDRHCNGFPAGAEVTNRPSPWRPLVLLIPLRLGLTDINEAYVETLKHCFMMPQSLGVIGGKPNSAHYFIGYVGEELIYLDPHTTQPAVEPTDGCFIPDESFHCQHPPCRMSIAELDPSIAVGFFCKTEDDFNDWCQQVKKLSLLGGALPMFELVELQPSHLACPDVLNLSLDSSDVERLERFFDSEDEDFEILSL

What does the source list for `Cc1nn(Cc2c(F)c(F)c(F)c(F)c2F)c(C)c1NC(=O)c1ccc(COc2cc(Cl)ccc2Cl)cc1`?
EC50 [1]: > 120 µM (not active); IC50 (Phospholipase A2): 0.27 µM (active); EC50 [2]: 7.73 µM (active); EC50 (H4): 3.37 µM (active); IC50 (Cysteine protease ATG4B): 0.532 µM (active)

Which CC50 [3] does the source give for `CN1CCN(c2ccc(NC(=O)c3ccc(-c4ccc(Br)cc4)o3)cc2)CC1` here?
Its CC50 is > 20 µM (active).

And the CC50 [4]?
Its CC50 is 13 µM (active).

What about the EC50 [5] of the same compound?
Its EC50 is > 60 µM (not active).

And the EC50 [6]?
Its EC50 is > 10.3 µM (inactive).

What about the EC50 (Mu-type opioid receptor) of the same compound?
Its EC50 is > 3.42 µM (active).

What about the CC50 [7] of the same compound?
The CC50 was 16.7 µM (active).

What about the EC50 [8] of the same compound?
Its EC50 is 1.26 µM (active).

What about the IC50 [9] of the same compound?
Its IC50 is 37 µM (active).

What about the EC50 [10] of the same compound?
Its EC50 is > 92.5 µM (inactive).

What about the IC50 (cells) of the same compound?
The IC50 was 2.59 µM (active).

Which IC50 (CHO-K1) does the source give for `Cc1cccc(-c2cc3nc(-c4ccccc4)cc(N4CCC5(CC4)OCCO5)n3n2)c1` here?
The IC50 was > 66.2 µM (inactive).

And the IC50 (Orexin receptor type 2 [11])?
The IC50 was > 88.8 µM (inactive).

And the IC50 [12]?
Its IC50 is 5.38 µM (active).

And the IC50 (Orexin receptor type 2 [13])?
Its IC50 is > 50 µM (inactive).

What about the IC50 [14] of the same compound?
The IC50 was 12.6 µM (inactive).

And the IC50 [15]?
Its IC50 is > 49.8 µM (inactive).

For `Cc1cccc(Nc2nnc(-c3ccc(C(=O)N4C[C@H]5C[C@H](C4)c4cccc(=O)n4C5)cc3)c3ccccc23)c1`, which EC50 [16] is on record?
Its EC50 is 2.12 µM (active) and 1.66 µM (active).

For `CCn1c(=S)[nH]c2c(c1=O)C(C)(C)Cc1ccccc1-2`, which EC50 [17] is on record?
The EC50 was > 79.4 µM (not active).

What about the EC50 [18] of the same compound?
The EC50 was > 79.4 µM (not active).

What about the EC50 [19] of the same compound?
The EC50 was > 79.4 µM (inactive).

For `CCOc1ccccc1C(=O)NCC(=O)OCc1csc(CC(=O)Nc2ccc(C)cc2)n1`, which EC50 [16] is on record?
Its EC50 is 228 nM (active).

What does the source list for `Cc1cccc(/C=N/NC(=O)c2cc3c(s2)-c2ccccc2CC3)c1`?
IC50 (CHO-K1): > 66.2 µM (inactive); IC50 (Orexin receptor type 2 [11]): > 88.8 µM (inactive); IC50 [12]: 2.13 µM (active); IC50 (Orexin receptor type 2 [13]): > 50 µM (inactive); IC50 [14]: 2.81 µM (active); IC50 [15]: > 49.8 µM (inactive)
